From patent US20230364198A1, “C-Peptide as a Therapy for Patients with Diabetes” (University of Cincinnati, priority 2022, published 2023)
Several values for one entry are separate records, joined by “and”; a condition that tells them apart may be missing. Equal entries are not always repeated. Entries after “also recorded” stand apart in the source; their conditions may differ. Where two headings read alike, the source gives them in different places. No end group written: not given here.

Columns and labels:
[1] = humans; cited from earlier work
[2] = in vivo; cited from earlier work
[3] = dogs; cited from earlier work
adult mongrel dogs = assay: Hyperinsulinemic euglycemic (Pd1) / hypoglycemic (Pd2) clamp with IV C-peptide or saline coinfusion in dogs; format: in vivo, dog; settings: for glucagon secretion during euglycemic/hyperinsulinemic conditions (words): Pd1, IV C-peptide with insulin vs IV saline with insulin
Protocol: Studies were carried out on 18-hour fasted adult mongrel dogs (21 ± 4 kg; mean ± SD; 5 male, 4 female), aged 12.1 ± 0.6 months and acquired from a US Department of Agriculture-approved vendor. The animals were housed in a facility with a 12-hour light/12-hour dark cycle (lights on at 06:00 hours) and fed once daily a standard chow and meat diet (34% protein, 14.5% fat, 46% carbohydrate, and 5.5% fiber based on dry weight) that was weight maintaining.
Two weeks prior to being studied, each dog underwent surgery under general anesthesia to insert sampling catheters in a femoral artery, the hepatic portal vein, and the left common hepatic vein and to place blood flow probes (Transonic Systems) around the hepatic portal vein and hepatic artery. Two experiments were conducted on each animal, with the first being approximately 15 days after surgery and the second approximately 15 days later. Two days before each experiment, blood was drawn to measure leukocyte and hematocrit counts for each animal. […] On the morning of each experiment, the sampling catheters and flow probes were removed from their subcutaneous pockets under local anesthesia (2% lidocaine, Hospira), and the animal was placed in a Pavlov harness. Intravenous catheters were then inserted into a cephalic and saphenous vein to allow peripheral infusions as necessary. The animal was then allowed to rest for 100 minutes, after which basal samples were collected from the artery and portal and hepatic veins between -20 and 0 minutes.
After the 0-minute sample was collected, experimental period 1 (Pd1) began with the infusion of insulin at 1 mU/kg/min into a leg vein (FIG. 1). At the same time, a leg vein infusion of either canine CPEP (10 pmol/kg/min; AnaSpec) or SAL was also started, and dextrose was infused as needed to maintain euglycemia throughout Pd1 (0-120 minutes). Studies were randomized such that 4 of the 9 dogs received the C-peptide on the first study and the other 5 received saline first. At minute 120, the dextrose infusion was reduced, and the plasma glucose level was allowed to fall to approximately 50 mg/dL, where it was clamped (Pd2; 120-240 minutes; FIG. 1). At the end of the first experiment, all infusions were halted with the exception of glucose, which was infused as needed to restore euglycemia. Once that infusion was no longer required, the catheters and flow probes were placed back into subcutaneous pockets under general anesthesia. After the second experiment, animals were euthanized with pentobarbital, the abdomen was opened, and the positions of the catheter tips were verified.
The processing of blood samples has been described previously. Plasma glucose was analyzed using the glucose oxidase method (Analox Instruments). Insulin, glucagon, and C-peptide were measured using commercially available radioimmunoassay (RIA) kits from MilliporeSigma, and cortisol was measured using an RIA protocol developed by the Vanderbilt University Medical Center Hormone Assay & Analytical Services Core using an in-house antibody (gift from W. Nicholson) and 125I-cortisol (MP Biomedicals). Catecholamines were measured using high-performance liquid chromatography, while NEFA (FUJIFILM Medical Systems) and lactate and glycerol concentrations were measured using fluorometric assays.
Hepatic blood flow was measured using ultrasonic flow probes (Transonic Systems). Net hepatic glucose balance (NHGB), hepatic sinusoidal insulin and glucagon levels, and non-hepatic glucose uptake were calculated as described previously, while plasma glucose levels were converted to whole blood values for the calculation of NHGB. Glucagon was measured every 30 minutes during Pd1 and Pd2, and those data are expressed as absolute values and as Δ AUC. […]

Sequence: EVEDLQVRDVELAGAPGEGGLQPLALEGALQ [C-peptide]
- clearance rate of C-peptide [1]: ~ 4.4 mL/kg/min
- C-peptide extraction by the liver as share of its clearance [2]: approximately 5%
- clearance rate of C-peptide [3]: ~ 11.6 mL/kg/min
- glucagon secretion during euglycemic/hyperinsulinemic conditions (words) (adult mongrel dogs): preserved glucagon secretion; also recorded: prevented the expected decline in glucagon secretion; also recorded: preserves basal glucagon secretion
- glucagon secretion during euglycemic/hyperinsulinemic conditions (words) (adult mongrel dogs; listed as CPEP): glucagon secretion decreased less
- glucagon secretion during hypoglycemic/hyperinsulinemic conditions (adult mongrel dogs; Pd2, IV C-peptide with insulin vs IV saline with insulin): doubled glucagon secretion
- reduction in exogenous glucose required to sustain the plasma glucose at 50 mg/dL vs SAL (adult mongrel dogs; final 90 minutes of Pd2): 47%
- exogenous glucose infusion rate (GIR) AUC (adult mongrel dogs; final 90 minutes of Pd2, glucose clamped at 50 mg/dL, mean ± SEM): 37 ± 16 mg/kg × 90 minutes
- impact on net hepatic uptake of NEFA and glycerol (adult mongrel dogs; hyperinsulinemia of Pd1): no additional impact
- impact on lipolysis (NEFA and glycerol levels) (adult mongrel dogs; hypoglycemia, Pd2): no impact on lipolysis
- increase in glucagon secretion in the CPEP group compared with SAL (adult mongrel dogs; insulin-induced hypoglycemia (Pd2), IV C-peptide 10 pmol/kg/min with insulin 1 mU/kg/min): 2 fold
- epinephrine, norepinephrine and cortisol levels, SAL vs CPEP (adult mongrel dogs; insulin-induced hypoglycemia, Pd2): no significant difference between treatments
- increase in net hepatic glucose output (net HGP) vs SAL (adult mongrel dogs; insulin-induced hypoglycemia, final 90 minutes of Pd2): 75%
- increase in net hepatic glucose output (net HGP) vs SAL (adult mongrel dogs; insulin-induced hypoglycemia, final 90 minutes of Pd2, listed as CPEP): 75% and 73%
